Columns and labels:
Assay type in all cases: cell-based, human
BT-474 [1] = experiment: Cell viability (EZ-Cytox); settings: Baf A 50 nM or Tz 20 μg mL^−1; 6, 24 and 48 hours
Method: (§1) Each cell line was preincubated in 96 wells at 5×10^4 cells per well in a CO2 incubator (37° C., 5% CO2, 2-24 hours). […] Each well was treated with 10 μL of EZ-Cytox (DoGen Bio, Korea), followed by further incubation for at least 1 hour. Thereafter, UV-vis absorbance at 450 nm was recorded.

MDA-MB-231 [2] = experiment: Cell viability (EZ-Cytox); settings: Baf A 50 nM or Tz 20 μg mL^−1; 6, 24 and 48 hours
Method: as §1

Caov-3 cell line [3] = experiment: LC3 Western blotting and LC3 ELISA of Caov-3 cell lysates; settings: Baf A for 20 minutes and 24 hours, FIG. 14
Method: (§2) Each cell line was cultured in a 10-cm dish under appropriate conditions before cell lysate preparation. […] Caov-3 cells were treated with bafilomycin A1 (1 μM) and allowed to starve for 24 to 48 hours before adding a cytosolic LC3 removal reagent. […] Pellet cells were then washed with ice-cold PBS and incubated for 15 minutes with RIPA lysis buffer and inhibitors (Halt™ Protease and Phosphatase Inhibitor Cocktail). Thereafter, sonication and centrifugation were repeated to afford a cell lysate at a final concentration of 1.6×10^6 cells/mL.
The cell lysate prepared in Experimental Example 2 was quantified with a BCA assay kit (Thermo Fisher Scientific), and 40 μg thereof was loaded into each well. SDS-PAGE was conducted under conditions of 70 minutes or more, 15% gel, and 90 V. Primary (LC3B antibody, Cell Signaling) and secondary (goat anti-mouse, GenDEPOT) antibodies to LC3 were diluted 1:1000 and 1:5000, respectively, and respective antibodies to actin (anti beta-actin, AbFrontier) were also diluted 1:1000 and 1:10000. Other specific conditions were the same as the general protocol for Western blotting.

BT-474 [4] = experiment: LC3 nanoplasmonic biosensor analysis of cell lysates of BT-474 cells; settings: 12 hours
Method: as §2
Cleanly washed microscope coverslip slides were pretreated with 10% (v/v) APTES for 1 hour, and then drop-coated with 10 μL of a diluted immuno-AuNR solution (OD: about 0.05). A closed water-bath microfluidic detection chamber including two coverslip slides with a gasket interposed therebetween was assembled and securely fixed for sample incubation and biosensing (FIG. 1). The detection chamber was then mounted on an automated dark-field microscope stage and a syringe pump was connected to the inlet of the detection chamber. Unbound immunogold on the surface of the coverslip slides was removed using ultrapure water at a flow rate of 100 μL min^−1 for 1 hour, followed by treatment with 1 mL of a 0.2 M ethanolamine solution for 30 minutes to inactivate unreacted functional groups. […]
The LSPR wavelength of each immunogold was recorded three times throughout the experiment: 1) before LC3 sample injection, 2) after LC3 sample incubation, and 3) after PEBP1 treatment. The LSPR wavelength of each AuNR stabilized on the bottom coverslip slide was rapidly recorded with an imaging microscope system (SERA, NOST, Seoul, Korea). […] The LSPR mapping results associated with the dark-field images were visualized on a monitor with RAON computer software (NOST, Seoul, Korea), and the plasmon shift (Δλmax) of each LSPR wavelength was calculated using OriginPro 9 software.

Caov-3 cell line [5] = experiment: LC3 nanoplasmonic biosensor analysis of cell lysates of Caov-3 cells
Method: as §2, with “Caov-3 cells were treated with bafilomycin A1 (1 μM) and allowed to starve for 24 to 48 hours before adding a cytosolic LC3 removal reagent.” left out
Cleanly washed microscope coverslip slides were pretreated with 10% (v/v) APTES for 1 hour, and then drop-coated with 10 μL of a diluted immuno-AuNR solution (OD: about 0.05). A closed water-bath microfluidic detection chamber including two coverslip slides with a gasket interposed therebetween was assembled and securely fixed for sample incubation and biosensing (FIG. 1). The detection chamber was then mounted on an automated dark-field microscope stage and a syringe pump was connected to the inlet of the detection chamber. Unbound immunogold on the surface of the coverslip slides was removed using ultrapure water at a flow rate of 100 μL min^−1 for 1 hour, followed by treatment with 1 mL of a 0.2 M ethanolamine solution for 30 minutes to inactivate unreacted functional groups. Thereafter, at least 10 μL of LC3 sample and PEBP1 (2 μg mL^−1) were injected into the chamber and incubated for 4 hours and 30 minutes, respectively, and contaminants were washed with ultrapure water before biosensing.
The LSPR wavelength of each immunogold was recorded three times throughout the experiment: 1) before LC3 sample injection, 2) after LC3 sample incubation, and 3) after PEBP1 treatment. The LSPR wavelength of each AuNR stabilized on the bottom coverslip slide was rapidly recorded with an imaging microscope system (SERA, NOST, Seoul, Korea). An automated surface scanning and imaging module with a high-resolution EMCCD detector (888, iXon Life, Oxford Instrument, Belfast, Northern Ireland) was connected to large-area (130×130 μm) computer-assisted high-speed LSPR mapping through a single click. The LSPR mapping results associated with the dark-field images were visualized on a monitor with RAON computer software (NOST, Seoul, Korea), and the plasmon shift (Δλmax) of each LSPR wavelength was calculated using OriginPro 9 software.
Then, the LSPR peak shift of the Caov-3 cell line treated with bafilomycin A or not treated therewith was represented in the form of a cumulative bar graph, as shown in FIG. 13. Here, the regular and hatched boxes represent the measured first and second LSPR shifts, respectively, and error bars correspond to the standard errors measured in 60 immuno-AuNRs.

MDA-MB-231 [6] = experiment: LC3 nanoplasmonic biosensor analysis of cell lysates of MDA-MB-231 cells; settings: 12 hours
[7] = before the additional treatment (read as 50 nM Baf A alone)

## CO/C1=C\C(C)=C\[C@@H](C)[C@@H](O)[C@@H](C)C/C(C)=C/C=C/[C@H](OC)[C@@H]([C@@H](C)[C@@H](O)[C@H](C)[C@@]2(O)C[C@@H](O)[C@H](C)[C@@H](C(C)C)O2)OC1=O [Baf A, bafilomycin A]
BT-474 [1]
  cell viability over time: gradual cell death
MDA-MB-231 [2]
  cell viability over time: gradual cell death
Caov-3 cell line [3]
  LC3 expression by Western blotting and ELISA: LC3-II accumulation was induced
BT-474 [4]; 50 nM Baf A, versus no Baf A
  change of first-step LSPR Δλmax and LC3-II ratio: greater first-step LSPR Δλmax and an increased LC3-II ratio
BT-474 [4]; [7]
  LC3-II ratio (Equation 1): 68.1%
  first-step LSPR Δλmax: 7.23±0.33 nm
Caov-3 cell line [5]; Baf A for 20 minutes
  LC3-II composition (Equation 1): 6.78%
Caov-3 cell line [5]; Baf A for 24 hours
  LC3-II composition (Equation 1): 78.8%
  first LSPR peak shift: 10.2±0.25 nm
Caov-3 cell line [5]; Baf A for 24 hours, after PEBP1
  second LSPR peak shift: 1.53±0.29 nm
MDA-MB-231 [6]; 50 nM Baf A, versus no Baf A
  change of first-step LSPR Δλmax and LC3-II ratio: greater first-step LSPR Δλmax and an increased LC3-II ratio
MDA-MB-231 [6]; [7]
  first-step LSPR Δλmax: 10.40±0.35 nm

From patent US20230236169A1, “NANOPLASMONIC BIOSENSOR FOR DETECTING AUTOPHAGY MARKER WITH HIGH SENSITIVITY, AND METHOD OF DETECTING AUTOPHAGY MARKER AND METHOD OF SCREENING DRUG CANDIDATE USING SAME” (KOREA UNIVERSITY RESEARCH AND BUSINESS FOUNDATION, priority 2021, published 2023)
